Source: patent publication US20240158404A1, “MODULATORS OF ALPHA-1 ANTITRYPSIN” (Vertex Pharmaceuticals Incorporated, priority 2022, published 2024)

What was measured:
[1] = molecular target: T1, AAT (Homo sapiens, UniProt P01009, E366K); experiment: Compound Quality score (potency in AAT functional assay multiplied by unbound clearance); settings: compound potency (EC50) x unbound clearance; class symbols
T1 construct: expressed in transfected cells; host or cells: NL20 human bronchial epithelial cells (NL20-SI cell line), with doxycycline added alongside the compounds
Source text: As used herein, the term “Compound Quality” refers to the potency of a compound multiplied (x) by the compound's unbound clearance as measured using the assays described in Example 6.
The terms “unbound clearance” refer to unbound intrinsic clearance (unbound CLint) in hepatocytes—the intrinsic clearance a drug would have in the absence of protein binding. Unbound CLint=CLint,hep/fu,hep, where CLint,hep is intrinsic clearance in hepatocytes and fu,hep is unbound fraction in hepatocytes.
A key consideration for the selection of compounds suitable for clinical development is the projection of human dose as described in Equations 1-3. Two key parameters that comprise the dose equation are the unbound clearance of a compound and the plasma efficacious exposure (also referred to herein as compound potency). Together these parameters are known to one skilled in the art as a measurement of Compound Quality and suitability for advancement into clinical development. Thus, when evaluating AAT modulator compounds, one needs to consider both the potency and unbound clearance parameters (i.e., Compound Quality). The relationship between these two parameters can be challenging to predict.
The values provided in the table below are calculated by multiplying the EC50 of each of the compounds by the result from the clearance assay procedures described in Section C above and rounded to two significant figures. In the table below, the following meanings apply for Compound Quality (i.e., compound potency x unbound clearance) values: “++++” means ≤0.2; “+++” means >0.20 and ≤0.30; “++” means >0.30 and ≤0.40; “+” means >0.40 and ≤0.50.

[2] = Exposure multiple in rat 5-day toxicology studies; type: in vivo; set-up: key to Exposure Multiple: ratio of tox-species AUC to target efficacious AUCss; settings: for EM Score: based on the maximum exposure multiple achieved in the rat 5-day toxicology study; for Exposure Multiple: rat 5-day toxicology study, vs predicted human efficacious exposure
Source text: “Exposure multiple” as used herein, refers to an assessment of relative compound exposure in toxicology studies. The calculation of an exposure multiple is accomplished by comparing the exposure (AUC) achieved in a toxicology species relative to the target efficacious exposure at steady state (AUCss). The larger exposure multiple provides the opportunity to explore higher doses relative to efficacious concentration in clinical development. However, the exposure that results in an adverse toxicological outcome is unpredictable.
The calculation of an exposure multiple is accomplished by comparing the plasma exposure (AUC) achieved in a toxicology species relative to the target efficacious exposure at steady state (AUCss). […] In addition, this exposure multiple can allow for further exploration of the desired pharmacology due to the opportunity for a larger window established in toxicology studies. However, the exposure that results in a toxicological outcome in preclinical toxicology studies is unpredictable.
Human exposure multiple (EM) values shown relate to the fold increase in exposure achieved in rat 5-day toxicology studies for a given dose relative to the predicted efficacious exposure anticipated in human (based on cellular NL20 EC50 in vitro efficacy). The exposure multiple score is based on the maximum exposure multiple achieved in the given study. This allows relative comparison across compounds when also considering the administered dose. […] In the tables below, the following meanings apply for exposure multiple scores: “−” means <1; “+” means 1-10; “++” means 10-20; “+++” means 20-30; “++++” means 30-50; and “+++++” means >50.

T1 sequence (P01009 25-418 E366K): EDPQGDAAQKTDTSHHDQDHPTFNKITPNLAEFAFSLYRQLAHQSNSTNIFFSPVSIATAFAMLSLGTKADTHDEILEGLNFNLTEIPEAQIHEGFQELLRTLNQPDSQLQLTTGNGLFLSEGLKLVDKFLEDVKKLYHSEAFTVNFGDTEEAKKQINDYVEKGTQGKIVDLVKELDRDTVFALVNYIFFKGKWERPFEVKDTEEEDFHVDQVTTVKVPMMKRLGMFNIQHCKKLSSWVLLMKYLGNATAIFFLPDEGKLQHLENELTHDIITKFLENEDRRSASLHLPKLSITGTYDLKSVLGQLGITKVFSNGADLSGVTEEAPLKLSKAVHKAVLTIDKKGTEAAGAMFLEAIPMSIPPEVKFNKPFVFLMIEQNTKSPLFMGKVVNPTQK

Structure (SMILES)	Compound Quality [1]	also measured
CC[C@@](O)(COC)c1c(-c2ccc(C(=O)O)cc2)c2c(F)c3[nH]ncc3cc2n1-c1ccc(F)c(OC)c1 [Compound 3, (S)-4-(8-fluoro-5-(4-fluoro-3-methoxyphenyl)-6-(2-hydroxy-1-methoxybutan-2-yl)-1,5-dihydropyrrolo[2,3-f]indazol-7-yl)benzoic acid]	+++ (“+++” means >0.20 and ≤0.30)	EM Score [2]: +++++ (“+++++” means >50); Exposure Multiple ([2]; Bid dose 50 (daily 100)): 2; Exposure Multiple ([2]; Bid dose 200 (daily 400)): 17; Exposure Multiple ([2]; Bid dose 500 (daily 1000)): 60
COCC(C)(C)c1c(-c2ccc(C(=O)O)cc2)c2cc3[nH]ncc3cc2n1-c1ccc(F)cc1 [reference compound]		EM Score [2]: ++ (“++” means 10-20); Exposure Multiple ([2]; Bid dose 25 (daily 50)): 5; Exposure Multiple ([2]; Bid dose 50 (daily 100)): 13; Exposure Multiple ([2]; Bid dose 100 (daily 200)): 18
CC[C@](O)(COC)c1c(-c2ccc(C(=O)O)cc2)c2cc3[nH]ncc3cc2n1-c1ccc(F)c(Cl)c1 [reference compound]		EM Score [2]: + (“+” means 1-10); Exposure Multiple ([2]; Bid dose 100 (daily 200)): 2; Exposure Multiple ([2]; Bid dose 250 (daily 500)): 1; Exposure Multiple ([2]; Bid dose 500 (daily 1000)): 2
CC[C@@](O)(COC)c1c(-c2ccc(C(=O)O)cc2)c2c(F)c3[nH]ncc3cc2n1-c1ccc(F)cc1 [Compound 1, (S)-4-(8-Fluoro-5-(4-fluorophenyl)-6-(2-hydroxy-1-methoxybutan-2-yl)-1,5-dihydropyrrolo[2,3-f]indazol-7-yl)benzoic acid]	++++ (“++++” means ≤0.2)	EM Score [2]: +++++ (“+++++” means >50); Exposure Multiple ([2]; Bid dose 50 (daily 100)): 10; Exposure Multiple ([2]; Bid dose 200 (daily 400)): 82; Exposure Multiple ([2]; Bid dose 500 (daily 1000)): 126
[2H]C([2H])([2H])Oc1cc(-n2c([C@@]3(O)C([2H])([2H])C([2H])([2H])C([2H])([2H])C([2H])([2H])[C@]3([2H])OC)c(-c3ccc(C(=O)O)cc3)c3c(F)c4[nH]ncc4cc32)ccc1F [Compound 31]	++ (“++” means >0.30 and ≤0.40)	
CC(C)(CC#N)c1c(-c2ccc(C(=O)O)cc2)c2cc3[nH]ncc3cc2n1-c1ccc(F)cc1 [reference compound]		EM Score [2]: + (“+” means 1-10); Exposure Multiple ([2]; Bid dose 287.5 (daily 575)): 1.8
CO[C@H]1CCCCC1(O)c1c(-c2ccc(C(=O)O)c(C)c2)c2c(F)c3[nH]ncc3cc2n1-c1ccc(F)cc1 (some centres unmarked) [Compound 56]	+++ (“+++” means >0.20 and ≤0.30)	
CCOC1CCCC1(O)c1c(-c2ccc(C(=O)O)cc2)c2c(F)c3[nH]ncc3cc2n1-c1ccc(F)c(OC)c1 (centres unmarked) [Compound 58]	+ (“+” means >0.40 and ≤0.50)	
CCC(O)(COC)c1c(-c2ccc(C(=O)O)c(C)c2)c2c(F)c3[nH]ncc3cc2n1-c1ccc(F)c(F)c1 (centres unmarked) [Compound 39]	+++ (“+++” means >0.20 and ≤0.30)	
[2H]C([2H])([2H])OCC(O)(CC)c1c(-c2ccc(C(=O)O)cc2)c2c(F)c3[nH]ncc3cc2n1-c1ccc(F)c(OC([2H])([2H])[2H])c1 (centres unmarked) [Compound 45]	+++ (“+++” means >0.20 and ≤0.30)	
CO[C@H]1CCCCC1(O)c1c(-c2ccc(C(=O)O)cc2)c2c(F)c3[nH]ncc3cc2n1-c1cc(F)c(F)cc1F (some centres unmarked) [Compound 61]	+++ (“+++” means >0.20 and ≤0.30)	
O=C(O)c1ccc(-c2c(C3CCOCC3)n(-c3ccc(F)c(F)c3)c3cc4cn[nH]c4cc23)cc1 [reference compound]		EM Score [2]: − (“−” means <1); Exposure Multiple ([2]; Bid dose 300 (daily 600)): 0.4
[2H]C([2H])([2H])Oc1cc(-n2c(C3(O)CCCC[C@@H]3OC)c(-c3ccc(C(=O)O)cc3)c3c(F)c4[nH]ncc4cc32)ccc1F (some centres unmarked) [Compound 51]	++ (“++” means >0.30 and ≤0.40)	
CCC(O)(COC)c1c(-c2ccc(C(=O)O)cc2F)c2c(F)c3[nH]ncc3cc2n1-c1ccc(F)c(F)c1 (centres unmarked) [Compound 62]	+ (“+” means >0.40 and ≤0.50)	
COC1COCCC1(O)c1c(-c2ccc(C(=O)O)cc2)c2c(F)c3[nH]ncc3cc2n1-c1ccc(F)c(C)c1 (centres unmarked) [Compound 59]	++ (“++” means >0.30 and ≤0.40)	
CO[C@H]1CCCCC1(O)c1c(-c2ccc(C(=O)O)cc2)c2c(F)c3[nH]ncc3cc2n1-c1ccc(F)c(F)c1F (some centres unmarked) [Compound 60]	+++ (“+++” means >0.20 and ≤0.30)	
[2H]C([2H])([2H])C([2H])([2H])C(O)(COC)c1c(-c2ccc(C(=O)O)cc2)c2c(F)c3[nH]ncc3cc2n1-c1ccc(F)cc1 (centres unmarked) [Compound 37]	+++ (“+++” means >0.20 and ≤0.30)	

Structure (SMILES)	Compound Quality [1]	also measured
COC1CCCCC1(O)c1c(-c2ccc(C(=O)O)cc2)c2c(F)c3[nH]ncc3cc2n1-c1ccc(F)c(F)c1 (centres unmarked) [Compound 23]	+++ (“+++” means >0.20 and ≤0.30)	
[2H]C([2H])([2H])Oc1cc(-n2c(C3(O)C([2H])([2H])C([2H])([2H])C([2H])([2H])C([2H])([2H])C3([2H])OC([2H])([2H])[2H])c(-c3ccc(C(=O)O)cc3)c3c(F)c4[nH]ncc4cc32)ccc1F (centres unmarked) [Compound 32]	+++ (“+++” means >0.20 and ≤0.30)	
[2H]C([2H])([2H])C([2H])([2H])C(O)(COC)c1c(-c2ccc(C(=O)O)cc2)c2c(F)c3[nH]ncc3cc2n1-c1ccc(F)c(C)c1 (centres unmarked) [Compound 19]	+++ (“+++” means >0.20 and ≤0.30)	
CCC(O)(COC)c1c(-c2ccc(C(=O)O)cc2)c2cc3[nH]ncc3cc2n1-c1ccc(F)cc1 (centres unmarked) [reference compound]		EM Score [2]: ++ (“++” means 10-20); Exposure Multiple ([2]; Bid dose 250 (daily 500)): 14
[2H]C([2H])([2H])Oc1cc(-n2c(C(O)(CC)COC)c(-c3ccc(C(=O)O)c(CC)c3)c3c(F)c4[nH]ncc4cc32)ccc1F (centres unmarked) [Compound 65]	+ (“+” means >0.40 and ≤0.50)	
COC1CCCC1(O)c1c(-c2ccc(C(=O)O)cc2)c2c(F)c3[nH]ncc3cc2n1-c1ccc(F)cc1 (centres unmarked) [Compound 27]	++ (“++” means >0.30 and ≤0.40)	
COC1CCCCC1(O)c1c(-c2ccc(C(=O)O)cc2)c2c(F)c3[nH]ncc3cc2n1-c1cccc(F)c1 (centres unmarked) [Compound 25]	+++ (“+++” means >0.20 and ≤0.30)	
[2H]C1([2H])C([2H])([2H])C([2H])([2H])[C@](O)(c2c(-c3ccc(C(=O)O)cc3)c3c(F)c4[nH]ncc4cc3n2-c2ccc(F)c(OC)c2)[C@@]([2H])(OC)C1([2H])[2H] [Compound 30]	++++ (“++++” means ≤0.2)	
CCC(O)(COC)c1c(-c2ccc(C(=O)O)c(C)c2)c2c(F)c3[nH]ncc3cc2n1-c1cccc(F)c1 (centres unmarked) [Compound 44]	+ (“+” means >0.40 and ≤0.50)	
[2H]C([2H])([2H])C([2H])([2H])C(O)(COC)c1c(-c2ccc(C(=O)O)cc2)c2c(F)c3[nH]ncc3cc2n1-c1ccc(F)c(C)c1 (centres unmarked) [Compound 38]	+++ (“+++” means >0.20 and ≤0.30)	
CCOCC(O)(c1c(-c2ccc(C(=O)O)cc2)c2c(F)c3[nH]ncc3cc2n1-c1ccc(F)cc1)C1CC1 (centres unmarked) [Compound 14]	++ (“++” means >0.30 and ≤0.40)	
[2H]C([2H])([2H])C([2H])([2H])C(O)(COC)c1c(-c2ccc(C(=O)O)cc2)c2c(F)c3[nH]ncc3cc2n1-c1ccc(F)c(F)c1 (centres unmarked) [Compound 34]	++++ (“++++” means ≤0.2)	
CCC(O)(COC(C)C)c1c(-c2ccc(C(=O)O)cc2)c2c(F)c3[nH]ncc3cc2n1-c1ccc(F)c(OC)c1 (centres unmarked) [Compound 13]	+++ (“+++” means >0.20 and ≤0.30)	
COC1CCCCC1(O)c1c(-c2ccc(C(=O)O)cc2)c2c(F)c3[nH]ncc3cc2n1-c1ccc(F)cc1 (centres unmarked) [Compound 26]	++++ (“++++” means ≤0.2)	
[2H]C([2H])([2H])C([2H])([2H])C(O)(COC)c1c(-c2ccc(C(=O)O)cc2)c2c(F)c3[nH]ncc3cc2n1-c1ccc(F)c(OC)c1 (centres unmarked) [Compound 20]	++ (“++” means >0.30 and ≤0.40)	
[2H]C([2H])([2H])Oc1cc(-n2c(C(O)(CC)COC)c(-c3ccc(C(=O)O)c(C)c3)c3c(F)c4[nH]ncc4cc32)ccc1F (centres unmarked) [Compound 50]	++ (“++” means >0.30 and ≤0.40)	
